These results are taken from patent USRE50663E1, “Heterocycle derivatives as pesticides” (Bayer Aktiengesellschaft, priority 2017, dated 2025).

SMILES strings stand for the structures.

For data set [1], the system named is adult cat fleas (Ctenocephalides felis). Briefly: Ctenocephalides felis oral test. The class given is in vivo. To be noted: 48 h, 100 ppm in citrated cattle blood, after 2 days, read-out: efficacy (kill). The procedure:
(§1) Solvent: dimethyl sulfoxide
To produce a suitable active compound formulation, 10 mg of active compound are mixed with 0.5 ml of dimethyl sulfoxide. Dilution with citrated cattle blood gives the desired concentration.
About 20 unfed adult cat fleas (Ctenocephalides felis) are placed into a chamber which is closed at the top and bottom with gauze. A metal cylinder whose bottom end is closed with parafilm is placed onto the chamber. The cylinder contains the blood/active compound formulation, which can be imbibed by the fleas through the parafilm membrane.
After 2 days, the kill in % is determined. 100% means that all of the fleas have been killed; 0% means that none of the fleas have been killed.

Data set [2] has as its system engorged adult female cattle ticks (Boophilus microplus). Briefly: Boophilus microplus injection test. In kind it is in vivo. To be noted: 20 μg/animal, injection into abdomen. Here is the method:
as §1
To produce a suitable active compound formulation, 10 mg of active compound are mixed with 0.5 ml of solvent and the concentrate is diluted to the desired concentration with solvent.
1 μl of the active compound solution is injected into the abdomen of 5 engorged adult female cattle ticks (Boophilus microplus). The animals are transferred into dishes and kept in a climate-controlled room.
The activity is assessed after the desired time by laying of fertile eggs. Eggs which are not visibly fertile are stored in a climate-controlled cabinet until the larvae hatch after about 42 days. An efficacy of 100% means that none of the ticks has laid any fertile eggs; 0% means that all the eggs are fertile.

For data set [3], the system named is larvae of the mustard beetle (Phaedon cochleariae). Briefly: Phaedon cochleariae spray test. To be noted: foliar, 168 h, 100 g/ha, after 7 days, Chinese cabbage leaf discs, read-out: efficacy. The class given is in vivo. The procedure: (§2) Solvent: 78.0 parts by weight of acetone • • 1.5 parts by weight of dimethylformamide
(§3) Emulsifier: alkylaryl polyglycol ether
(§4) To produce a suitable active compound formulation, 1 part by weight of active compound is dissolved with the specified parts by weight of solvent and made up to the desired concentration with water containing an emulsifier concentration of 1000 ppm. To produce further test concentrations, the formulation is diluted with emulsifier-containing water.
Discs of Chinese cabbage leaves (Brassica pekinensis) are sprayed with an active compound formulation of the desired concentration and, after drying, populated with larvae of the mustard beetle (Phaedon cochleariae).
After 7 days, the efficacy in % is determined. 100% means that all the beetle larvae have been killed; 0% means that no beetle larvae have been killed.

Data set [4] deals with caterpillars of the fall armyworm (Spodoptera frugiperda). Briefly: Spodoptera frugiperda spray test. In kind it is in vivo. As to conditions: foliar, 168 h, 100 g/ha, after 7 days, maize leaf discs, read-out: efficacy. The procedure:
as §2, §3, §4
Leaf discs of maize (Zea mays) are sprayed with an active compound formulation of the desired concentration and, after drying, populated with caterpillars of the fall armyworm (Spodoptera frugiperda).
After 7 days, the efficacy in % is determined. 100% means that all the caterpillars have been killed; 0% means that no caterpillar has been killed.

A short description of data set [5]: logP by HPLC on reversed-phase column (C18), acidic range. In kind it is physicochemical. As to conditions: reversed-phase HPLC column (C18), formic acid in water/acetonitrile. The procedure: The logP values were determined according to EEC Directive 79/831 Annex V.A8 by HPLC (high-performance liquid chromatography) on a reversed-phase column (C18) using the following methods:
Calibration was carried out using a homologous series of straight-chain alkan-2-ones (having 3 to 16 carbon atoms) with known logP values. The values between successive alkanones are determined by linear regression.

Data set [6] relates to adult cat fleas (Ctenocephalides felis). As to the kind of experiment: Ctenocephalides felis in vitro contact test with adult cat fleas. In kind it is in vivo. To be noted: application rate 5 μg/cm^2 (=500 g/ha), after 48 h, dead or moribund fleas. Here is the method: For the coating of the test tubes, 9 mg of active compound are first dissolved in 1 ml of acetone p.a. and then diluted to the desired concentration with acetone p.a. 250 μl of the solution are distributed homogeneously on the inner walls and the base of a 25 ml glass tube by turning and rocking on an orbital shaker (rocking rotation at 30 rpm for 2 h). With 900 ppm of active compound solution and internal surface area 44.7 cm^2, given homogeneous distribution, an area-based dose of 5 μg/cm^2 is achieved.
After the solvent has evaporated off, the tubes are populated with 5-10 adult cat fleas (Ctenocephalides felis), sealed with a perforated plastic lid and incubated in a horizontal position at room temperature and ambient humidity. After 48 h, efficacy is determined. To this end, the tubes are stood upright and the fleas are knocked to the base of the tube. Fleas which remain motionless at the base or move in an uncoordinated manner are considered to be dead or moribund.
100% efficacy means that all the fleas were dead or moribund. 0% efficacy means that no fleas were harmed.

Data set [7] deals with L1 larvae of the Australian sheep blowfly (Lucilia cuprina). Briefly: Lucilia cuprina test. In kind it is in vivo. To be noted: 48 h, 100 ppm, after 2 days, read-out: efficacy (kill). The procedure: as §1
(§5) To produce a suitable active compound formulation, 10 mg of active compound are mixed with 0.5 ml of dimethyl sulfoxide, and the concentrate is diluted with water to the desired concentration.
About 20 L1 larvae of the Australian sheep blowfly (Lucilia cuprina) are transferred into a test vessel containing minced horsemeat and the active compound formulation of the desired concentration.
After 2 days, the kill in % is determined. 100% means that all the larvae have been killed; 0% means that no larvae have been killed.

In data set [8] the test system is adult houseflies (Musca domestica). As to the kind of experiment: Musca domestica test. In kind it is in vivo. To be noted: after 2 days. The procedure: as §1, §5
Vessels containing a sponge treated with sugar solution and the desired concentration of active compound formulation are populated with 10 adult houseflies (Musca domestica).
After 2 days, the kill in % is determined. 100% means that all of the flies have been killed; 0% means that none of the flies have been killed.

Data set [9] relates to green peach aphids (Myzus persicae). As to the kind of experiment: Myzus persicae oral test. In kind it is in vivo. To be noted: 120 h, 4 ppm, after 5 days, read-out: efficacy. The procedure: Solvent: 100 parts by weight of acetone
To produce a suitable active compound formulation, 1 part by weight of active compound is dissolved with the stated parts by weight of solvent and made up to the desired concentration with water.
50 μl of the active compound formulation are transferred into microtitre plates and made up to a final volume of 200 μl with 150 μl of IPL41 insect medium (33%+15% sugar). Subsequently, the plates are sealed with parafilm, which a mixed population of green peach aphids (Myzus persicae) within a second microtitre plate is able to puncture and imbibe the solution.
(§6) After 5 days, the efficacy in % is determined. 100% means that all the aphids have been killed; 0% means that no aphids have been killed.

For data set [10], the system named is green peach aphid (Myzus persicae). As to the kind of experiment: Myzus persicae spray test. In kind it is in vivo. To be noted: foliar, 120 h, 100 g/ha, after 5 days, Chinese cabbage leaf discs, read-out: efficacy. Here is the method: Solvent: 78 parts by weight of acetone • • 1.5 parts by weight of dimethylformamide
as §3, §4
Discs of Chinese cabbage leaves (Brassica pekinensis) infested by all stages of the green peach aphid (Myzus persicae) are sprayed with an active compound formulation of the desired concentration.
as §6

Data set [11] has as its system southern root-knot nematode (Meloidogyne incognita). As to the kind of experiment: Meloidogyne incognita test. The class given is in vivo. To be noted: 20 ppm, after 14 days, lettuce. The procedure: Solvent: 125.0 parts by weight of acetone
To produce a suitable active compound formulation, 1 part by weight of active compound is mixed with the stated amount of solvent and the concentrate is diluted to the desired concentration with water.
Vessels are filled with sand, active compound solution, an egg/larvae suspension of the southern root-knot nematode (Meloidogyne incognita) and lettuce seeds. The lettuce seeds germinate and the plants develop. The galls develop on the roots.
After 14 days, the nematicidal efficacy in % is determined by the formation of galls. 100% means that no galls were found; 0% means that the number of galls on the treated plants corresponds to the untreated control.

Turning to `CCS(=O)(=O)c1c(-c2nc3cc(C(F)(F)F)cnc3n2C)nc2cc(C(F)(F)C3CC3)ccn12` [Example I-21], in [1], the pest or weed control at 100 ppm came to 100%. For the same molecule, the “efficacy (no laying of fertile eggs)” value in data set [2] worked out at 90%. The pest or weed control at 100 g/ha in data set [3] and in data set [4] was 100% in each case.
In the case of `CCS(=O)(=O)c1c(-c2nc3cc(C(F)(F)F)cnc3n2C)nc2cc(S(=O)(=O)C3CC3)ccn12` [Example I-09, 2-[7-(Cyclopropylsulfonyl)-3-(ethylsulfonyl)imidazo[1,2-a]pyridin-2-yl]-3-methyl-6-(trifluoromethyl)-3H-imidazo[4,5-b]pyridine], the chromatographic logP (in general, a lipophilicity value derived from retention on a column) in [5] stood at 2.89. For the same molecule, the efficacy in data set [6] is 100%. Besides, the pest or weed control at 100 ppm in data set [1] and in [7] was 100% throughout. Further, the “efficacy (kill)” value in [8] (20 ppm) is 80%. The pest or weed control at 4 ppm in data set [9] is 100%. Also, the figures for the pest or weed control at 100 g/ha in data set [10], in [3] and in data set [4] were 90%, 100% and 100%, respectively.
In data set [6], `CCS(=O)(=O)c1c(-c2nc3cc(C(F)(F)F)cnc3n2C)nc2cc(NC(=O)C3CC3)ccn12` [Example I-01] gave an efficacy of 100%. Further, the pest or weed control at 100 ppm in data set [1] and in [7] was 100% each time. The “efficacy (kill)” value in [8] (100 ppm) stood at 80%. In [9], the pest or weed control at 4 ppm was 100%. Also, the pest or weed control at 100 g/ha amounted to 90% in data set [10], 100% in data set [3] and 100% in [4].
Regarding `CCS(=O)(=O)c1c(-c2nc3cc(C(F)(F)F)cnc3n2C)nc2cc(C(=O)C3CC3)ccn12` [Example I-20], in data set [2], the “efficacy (no laying of fertile eggs)” value was 80%. Moreover, the pest or weed control at 100 g/ha in data set [3] and in [4] was 100% throughout.
Molecule `CCS(=O)(=O)c1c(-c2nc3cc(SC(F)(F)F)cnc3n2C)nc2cc(NC(=O)C3CC3)ccn12` [Example I-13] showed an efficacy in data set [6] of 100%. Also, the pest or weed control at 100 ppm in data set [1] and in data set [7] was 100% throughout. Further, in data set [9], the pest or weed control at 4 ppm was found to be 100%. Further, the pest or weed control at 100 g/ha amounted to 90% in data set [10], 100% in data set [3] and 100% in data set [4].
On to `CCS(=O)(=O)c1c(-c2nc3cc(SC(F)(F)F)cnc3n2C)nc2cc(S(=O)(=O)C3CC3)ccn12` [Example I-12], for which the pest or weed control at 100 ppm in [1] is 100%. For the same molecule, the “efficacy (kill)” value in [8] (100 ppm) is reported as 100%. The pest or weed control at 4 ppm in data set [9] was 100%. For the same molecule, the pest or weed control at 100 g/ha in data set [10], in [3] and in data set [4] was 100% each time.
Consider `CCS(=O)(=O)c1c(-c2nc3cc(C(F)(F)F)cnc3n2C)nc2cc(NC(=S)NC3CC3)ccn12` [Example I-05, 1-Cyclopropyl-3-{3-(ethylsulfonyl)-2-[3-methyl-6-(trifluoromethyl)-3H-imidazo[4,5-b]pyridin-2-yl]imidazo [1,2-a]pyridin-7-yl}thiourea], for which, in data set [5], the chromatographic logP was found to be 2.71. Also, the pest or weed control at 100 ppm in data set [1] and in [7] was 100% in each case. Besides, in data set [8] (100 ppm), the “efficacy (kill)” value came to 100%. The “nematicidal efficacy (formation of galls)” value in [11] turned out to be 90%. In addition, in data set [9], the pest or weed control at 4 ppm was 100%. Further, the pest or weed control at 100 g/ha in data set [10] was found to be 90%; in data set [3] it was 100%; in [4], 100%.
`CCS(=O)(=O)c1c(-c2nc3cc(C(F)(F)F)cnc3n2C)nc2cc(NS(=O)(=O)NC3CC3)ccn12` [Example I-07, N-Cyclopropyl-N′-{3-(ethylsulfonyl)-2-[3-methyl-6-(trifluoromethyl)-3H-imidazo[4,5-b]pyridin-2-yl]imidazo[1,2-a]pyridin-7-yl}sulfurdiamide] registered a chromatographic logP in data set [5] of 2.55. For the same molecule, the efficacy in data set [6] was 100%. For the same molecule, the pest or weed control at 100 ppm in data set [1] and in [7] was 100% in each case. The “efficacy (kill)” value in data set [8] (100 ppm) worked out at 80%. The pest or weed control at 4 ppm in data set [9] was determined as 100%.
